The test concerns the target Recombinant human HSD17B13 (Homo sapiens (Human), UniProt Q7Z5P4). The experiment in a line: HSD17B13 rapid-fire mass spectrometry assay (RF/MS assay). It is filed as biochemical. The following applies: inhibition of HSD17B13; LTB4 10 μM, NAD+ 0.5 mM, RT 3 h; IC50 ranges A-E. In a few lines: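 Product 12-oxo-LTB4 and substrate LTB4 quantified by RapidFire triple-quad MS in negative mode, giving percent conversion. Reaction: 80 nM recombinant hHSD17B13, 10 μM LTB4, 0.5 mM NAD+, compound up to 100 μM, pH 7.5, RT, 3 h. Variable-slope fit gave IC50; run in duplicate.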

What is called IC50 is the concentration that gives 50% inhibition.

Bounds are passed on as bounds.

Recombinant human HSD17B13, sequence (Q7Z5P4 20-300): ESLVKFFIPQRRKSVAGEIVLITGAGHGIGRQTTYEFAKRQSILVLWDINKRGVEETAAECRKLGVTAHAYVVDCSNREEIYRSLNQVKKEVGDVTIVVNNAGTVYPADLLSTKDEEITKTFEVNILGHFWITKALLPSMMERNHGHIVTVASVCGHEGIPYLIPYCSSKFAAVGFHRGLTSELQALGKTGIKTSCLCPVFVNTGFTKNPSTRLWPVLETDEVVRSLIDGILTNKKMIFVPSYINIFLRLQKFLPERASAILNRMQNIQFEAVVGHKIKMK

Regarding `COc1cc(C(=O)O)c(F)cc1NS(=O)(=O)c1csc(-c2ccc([C@H]3CC[C@H](C(C)(C)C)CC3)cc2C(F)(F)F)n1` [Example 780], the IC50 is under 100 nM.
`COc1cc(C(=O)O)c(F)cc1NS(=O)(=O)c1csc(-c2ccc(-c3ccc(C4CCC(C(C)(C)C)CC4)cc3C(F)(F)F)cc2C(F)(F)F)n1` (stereo not drawn) [Example 781]: the IC50 was 100 to 500 nM.
As for `COc1cc(C(=O)O)c(F)cc1NS(=O)(=O)c1csc(-c2ccc([C@H]3CC[C@@H](C(C)(C)C)CC3)cc2C(F)(F)F)n1` [Example 782], the figure is 100 to 500 nM.
As for `COc1cc(C(=O)O)c(F)cc1NS(=O)(=O)c1csc(-c2ccc(-c3ccc([C@H]4CC[C@@H](C(C)(C)C)CC4)cc3C(F)(F)F)cc2C(F)(F)F)n1` [Example 783], the figure is 100 to 500 nM; as for `COc1cc(C(=O)O)c(F)cc1NS(=O)(=O)c1csc(-c2ccc(-c3ccc(C(F)(F)C(F)(F)F)cc3)cc2C(F)(F)F)n1` [Example 784], under 100 nM; as for `CCC1CC=C(c2ccc(-c3nc(S(=O)(=O)Nc4cc(F)c(C(=O)O)cc4OC)cs3)c(C(F)(F)F)c2)CC1` (stereo not drawn) [Example 785], under 100 nM.
Take `CCC1CCC(c2ccc(-c3nc(S(=O)(=O)Nc4cc(F)c(C(=O)O)cc4OC)cs3)c(C(F)(F)F)c2)CC1` (stereo not drawn) [Example 786]: the IC50 is 100 to 500 nM.
Turning to `CC[C@H]1CC[C@H](c2ccc(-c3nc(S(=O)(=O)Nc4cc(F)c(C(=O)O)cc4OC)cs3)c(C(F)(F)F)c2)CC1` [Example 787], the IC50 is under 100 nM.
To `COc1cc(C(=O)O)c(F)cc1NS(=O)(=O)c1csc(-c2ccc(-c3ccc(-c4ccc(C(F)(F)C(F)(F)F)cc4)cc3C(F)(F)F)cc2C(F)(F)F)n1` [Example 788] belongs 100 to 500 nM; to `COc1cc(C(=O)O)c(F)cc1NS(=O)(=O)c1csc(-c2ccc(-c3cc(F)c(C(F)(F)F)c(F)c3)c(OC(C)C)c2F)n1` [Example 790], under 100 nM; to `COc1cc(C(=O)O)c(F)cc1NS(=O)(=O)c1csc(-c2ccc(-c3ccc(C(F)(C(F)(F)F)C(F)(F)F)cc3)c(OC(C)C)c2F)n1` [Example 793], under 100 nM.
As for `COc1cc(C(=O)O)c(F)cc1NS(=O)(=O)c1csc(-c2ccc(-c3ccc(C4(C(F)(F)F)CC4)cc3)cc2C(F)(F)F)n1` [Example 794], the IC50 was under 100 nM.
Regarding `COc1cc(C(=O)O)c(F)cc1NS(=O)(=O)c1csc(-c2ccc(-c3ccc(C(F)(C(F)(F)F)C(F)(F)F)cc3)cc2C(F)(F)F)n1` [Example 795], the IC50 is under 100 nM.
With `COc1cc(C(=O)O)c(F)cc1NS(=O)(=O)c1csc(-c2ccc(-c3ccc(-c4ccc(C5(C(F)(F)F)CC5)cc4)cc3C(F)(F)F)cc2C(F)(F)F)n1` [Example 796], the IC50 was in the range of 100 to 500 nM.
As for `COc1cc(C(=O)O)c(F)cc1NS(=O)(=O)c1csc(-c2ccc(-c3ccc(-c4ccc(C(F)(C(F)(F)F)C(F)(F)F)cc4)cc3C(F)(F)F)cc2C(F)(F)F)n1` [Example 797], the figure is 100 to 500 nM; as for `COc1cc(C(=O)O)c(F)cc1NS(=O)(=O)c1ccc2sc(-c3ccc([C@H]4CC[C@H](C(C)C)CC4)cc3C(F)(F)F)nc2c1` [Example 798], 100 to 500 nM.
With `COc1cc(C(=O)O)c(F)cc1NS(=O)(=O)c1csc(-c2ccc(C3=CCC(C(C)C)CC3)c(OC)c2F)n1` (stereo not drawn) [Example 799], the IC50 is under 100 nM.
`COc1cc(C(=O)O)c(F)cc1NS(=O)(=O)c1csc(C2=CCC(C(C)C)CC2)n1` (stereo not drawn) [Example 800]: the IC50 was 500 to 1000 nM.
With `COc1cc(C(=O)O)c(F)cc1NS(=O)(=O)c1csc(-c2ccc([C@H]3CC[C@@H](C(C)C)CC3)c(OC)c2F)n1` [Example 802], the IC50 was under 100 nM.
On to `COc1cc(C(=O)O)c(F)cc1NS(=O)(=O)c1csc(-c2ccc([C@H]3CC[C@H](C(C)C)CC3)c(OC)c2F)n1` [Example 803], for which the IC50 was under 100 nM.
As for `COc1cc(C(=O)O)c(F)cc1NS(=O)(=O)c1csc(-c2ccc(-c3ccc(-c4ccc(C5=CCC(C(C)(C)C)CC5)cc4C(F)(F)F)cc3C(F)(F)F)cc2C(F)(F)F)n1` (stereo not drawn) [Example 804], the figure is 1000 to 100000 nM.
To `COc1cc(C(=O)O)c(F)cc1NS(=O)(=O)c1csc(-c2ccc([C@H]3CC[C@@H](C(C)C)CC3)c(F)c2C)n1` [Example 805] belongs under 100 nM; to `COc1cc(C(=O)O)c(F)cc1NS(=O)(=O)c1csc(-c2ccc([C@H]3CC[C@H](C(C)C)CC3)c(F)c2C)n1` [Example 806], under 100 nM; to `COc1cc(C(=O)O)c(F)cc1NS(=O)(=O)c1csc(-c2ccc([C@H]3CC[C@@H](C(C)C)CC3)c(C)c2F)n1` [Example 807], under 100 nM.
As for `COc1cc(C(=O)O)c(F)cc1NS(=O)(=O)c1csc(-c2ccc([C@H]3CC[C@H](C(C)C)CC3)c(C)c2F)n1` [Example 808], the figure is under 100 nM; as for `CCOc1c(C2=CCC(C(C)C)CC2)ccc(-c2nc(S(=O)(=O)Nc3cc(F)c(C(=O)O)cc3OC)cs2)c1F` (stereo not drawn) [Example 809], under 100 nM.
Consider `COc1cc(C(=O)O)c(F)cc1NS(=O)(=O)c1csc(-c2ccc(C3=CCC(C(F)(F)F)CC3)c(OC(C)C)c2F)n1` (stereo not drawn) [Example 810], for which the IC50 is under 100 nM.
As for `COc1cc(C(=O)O)c(F)cc1NS(=O)(=O)c1csc(-c2ccc(C3CCC(C(F)(F)F)CC3)c(OC(C)C)c2F)n1` (stereo not drawn) [Example 811], the figure is 100 to 500 nM.
As for `COc1cc(C(=O)O)c(F)cc1NS(=O)(=O)c1csc(-c2ccc(C3CCC(C(F)(F)F)CC3)c(OC(C)C)c2F)n1` (stereo not drawn) [Example 812], the figure is under 100 nM; as for `COc1cc(C(=O)O)c(F)cc1NS(=O)(=O)c1csc(-c2ccc(C3=CCC(C(F)(F)F)CC3)c(C)c2F)n1` (stereo not drawn) [Example 813], under 100 nM; as for `CCOc1c(F)c(-c2nc(S(=O)(=O)Nc3cc(F)c(C(=O)O)cc3OC)cs2)ccc1[C@H]1CC[C@@H](C(F)(F)F)CC1` [Example 814], under 100 nM.
To `CCOc1c(F)c(-c2nc(S(=O)(=O)Nc3cc(F)c(C(=O)O)cc3OC)cs2)ccc1[C@H]1CC[C@H](C(F)(F)F)CC1` [Example 815] belongs 100 to 500 nM; to `CCOc1c(C2=CCC(C(F)(F)F)CC2)ccc(-c2nc(S(=O)(=O)Nc3cc(F)c(C(=O)O)cc3OC)cs2)c1F` (stereo not drawn) [Example 816], under 100 nM.

The record behind these values is patent US12384753B2, “17-beta-hydroxysteroid dehydrogenase type 13 inhibitors and methods of use thereof” (Enanta Pharmaceuticals, Inc., priority 2021, dated 2025).
